Source: ChEMBL document CHEMBL1921753, “Semisynthesis and biological evaluation of ganodermanontriol and its stereoisomeric triols” (J Nat Prod, 2011)

Key:
Type in all cases: functional, cell-based
MCF7 [1] = assay: Antiproliferative activity against human MCF7 cells after 24 to 72 hrs by MTT assay
MDA-MB-231 [2] = assay: Antiproliferative activity against human MDA-MB-231 cells after 24 to 72 hrs by MTT assay
MDA-MB-231 [3] = assay: Antiproliferative activity against human MDA-MB-231 cells after 72 hrs by MTT assay; conditions: MDA-MB-231, 72 h
MCF7 [4] = assay: Antiproliferative activity against human MCF7 cells after 72 hrs by MTT assay; conditions: MCF7, 72 h

SMILES | IC50 (MCF7 [1]) | IC50 (MDA-MB-231 [2]) | IC50 (MDA-MB-231 [3]) | IC50 (MCF7 [4])
C[C@H](CC[C@H](O)[C@@](C)(O)CO)[C@H]1CC[C@@]2(C)C3=CC[C@H]4C(C)(C)C(=O)CC[C@]4(C)C3=CC[C@]12C | 16.3 µM | 36.7 µM |  | 
C[C@H](CC[C@@H](O)[C@@](C)(O)CO)[C@H]1CC[C@@]2(C)C3=CC[C@H]4C(C)(C)C(=O)CC[C@]4(C)C3=CC[C@]12C | 24.1 µM | 33.8 µM |  | 
C[C@H](CC[C@H](O)[C@](C)(O)CO)[C@H]1CC[C@@]2(C)C3=CC[C@H]4C(C)(C)C(=O)CC[C@]4(C)C3=CC[C@]12C [GANODERMANONTRIOL] |  |  | 9.7 µM | 5.8 µM
C[C@H](CC[C@@H](O)[C@](C)(O)CO)[C@H]1CC[C@@]2(C)C3=CC[C@H]4C(C)(C)C(=O)CC[C@]4(C)C3=CC[C@]12C | 24.1 µM | 11.3 µM |  | 
